Source: ChEMBL document CHEMBL3804812, “Design, Syntheses, and Anti-TB Activity of 1,3-Benzothiazinone Azide and Click Chemistry Products Inspired by BTZ043” (ACS Med Chem Lett, 2016)
Calls of active or inactive are those of the source. No cut-off for these calls is given here.

System: Mycobacterium tuberculosis
Assay: Antibacterial activity against Mycobacterium tuberculosis NTB1 harboring cys287ser mutation in DprE1 assessed as reduction in colony formation
Assay type: functional, organism-based

Compound: C[C@H]1COC2(CCN(c3nc(=O)c4cc(C(F)(F)F)cc(N=[N+]=[N-])c4s3)CC2)O1
- Activity: Active
